In patent EP0536208B1, “1,2-DIHYDRO-3H-DIBENZISOQUINOLINE-1,3-DIONE ANTICANCER AGENTS” (RESEARCH CORPORATION TECHNOLOGIES, INC., priority 1990, dated 1992):
pIC50: −log10 of the molar value. Values after ≈ are worked out from the molar mass of the structure shown. Like-named read-outs stand apart in the source and are kept apart here.

Assays:
L-1210/Murine Leukemia = assay: In vitro tumor cell viability assay using MTT dye; format: cell-based; conditions: Mus musculus
Experimental: (§1) Compounds of the present invention were tested for their in vitro activity in tumor cells sensitive and resistant to standard anti-cancer agents. The tumor cell lines used in this protocol are 8226 human Myeloma^1; 8226/Dox-40^2, L-1210/Murine Leukemia, multidrug resistant L-210/^3, 2780 Human Ovarian Cancer and 2780/AD^4. Each of these resistant cell lines is known as a multidrug resistant or "MDR" cell line. These cell lines produce a 170,00 molecular weight membrane protein termed the P-glycoprotein which acts as an active drug efflux pump. Thus, once a cell produces the P-glycoprotein, it has the capability of pumping out of the cell a large variety of unrelated natural products. […] The protocol for measuring the effectiveness of compounds of the present invention is as follows: 2) In Vitro Tumor Cell Viability Assays Using MTT-Dye: Tumors are processed into a single cell suspension as described above. The cells are plated at a concentration of 3-5 X 10^4/1 mL well into plastic 96-well plates. […] Afterwards the medium containing the drug is removed, the cells are "washed" by centrifugation in fresh medium or phosphate-buffered saline (pH 7.4). A tetrazolium dye is then added (3,4,5-dimethylthiazol-2-yl)-2,5-diphenyl tetrazolium bromide (MTT). This dye forms a colored formazan product upon activation by mitochondrial reductases in viable cells. Typically, the formazan product is solubilized in acid-propanol or DMSO. The intensity of the color is proportional to viable cell numbers and this is quantitated by spectrophotometric absorbance ([…]) on a micro ELISA plate reader. Test results are calibrated in % control absorbance from untreated tumor cells (Mossman T: J Immunol Meth 65:55-63, 1983). Using the above procedure, Compound 1 was tested for its cytotoxic activity with respect to various tumor cell lines.

Resistant L1210 = assay: In vitro tumor cell viability assay using MTT dye; format: cell-based, Murine; conditions: Mus musculus
Experimental: as §1

205p14 = assay: Activity against human colon tumor cells (MTT assay, 3 day drug exposure); format: cell-based; conditions: cells plated 24 hr. prior to drug addition, read-out: Concentration for 50% inhibition of colony formation for human colon tumors
Experimental: (§2) For example, the compounds of the present invention were evaluated for cytotoxic activities in cloned human colon carcinomas. The clonogenic assays were conducted in accordance with the procedure described hereinbelow: 1) Colony Forming Assays in Soft Agar: Fresh human or murine tumors are disaggregated into single cell suspensions using mechanical, hypoosmotic and/or enzymatic (trypsin) methods. The single cells (about 5 X 10^4-10^5) are plated in 35 mm plastic petri dishes onto a 1 ml "feeder layer" of 0.3% agar dissolved in growth medium containing 5-10% vol/vol of heat-inactivated fetal bovine serum, molten 0.3% agar and the antibiotics penicillin (100 u/mL) and streptomycin (100 ug/mL). Drug exposures can be performed for one hour or continuously (drugs added to final plating medium). Tumor cell colonies > 60 uM in size are counted by automated image analysis after 10-20 days of incubation in a humidified, 5-10% CO2-gassed environment maintained at 37°C. Inhibition of colony formation is calculated based on comparisons to control (untreated) plates wherein the growth of hundreds of colonies/plate is typical. (Salmon SE, et al., N Engl J Med 298(24):1321-1327, 1978).
(§3) Compounds of the present invention were tested for their in vitro activity in tumor cells sensitive and resistant to standard anti-cancer agents. The tumor cell lines used in this protocol are 8226 human Myeloma^1; 8226/Dox-40^2, L-1210/Murine Leukemia, multidrug resistant L-210/^3, 2780 Human Ovarian Cancer and 2780/AD^4. Each of these resistant cell lines is known as a multidrug resistant or "MDR" cell line. These cell lines produce a 170,00 molecular weight membrane protein termed the P-glycoprotein which acts as an active drug efflux pump. Thus, once a cell produces the P-glycoprotein, it has the capability of pumping out of the cell a large variety of unrelated natural products. […] The protocol for measuring the effectiveness of compounds of the present invention is as follows: 2) In Vitro Tumor Cell Viability Assays Using MTT-Dye: Tumors are processed into a single cell suspension as described above. The cells are plated at a concentration of 3-5 X 10^4/1 mL well into plastic 96-well plates. Growth medium containing 5-10% (vol/vol) heat-inactivated fetal bovine serum and penicillin/streptomycin (as above) is added prior to incubation at 37°C for six days. Afterwards the medium containing the drug is removed, the cells are "washed" by centrifugation in fresh medium or phosphate-buffered saline (pH 7.4). A tetrazolium dye is then added (3,4,5-dimethylthiazol-2-yl)-2,5-diphenyl tetrazolium bromide (MTT). This dye forms a colored formazan product upon activation by mitochondrial reductases in viable cells. Typically, the formazan product is solubilized in acid-propanol or DMSO. The intensity of the color is proportional to viable cell numbers and this is quantitated by spectrophotometric absorbance ([…]) on a micro ELISA plate reader. Test results are calibrated in % control absorbance from untreated tumor cells (Mossman T: J Immunol Meth 65:55-63, 1983). Using the above procedure, Compound 1 was tested for its cytotoxic activity with respect to various tumor cell lines.

LOVOp32 = assay: as above; format: cell-based; conditions: cells plated 24 hr. prior to drug addition, read-out: Concentration for 50% inhibition of colony formation for human colon tumors
Experimental: as §2, §3

SW80p105 = assay: as above; format: cell-based; conditions: cells plated 24 hr. prior to drug addition, read-out: Concentration for 50% inhibition of colony formation for human colon tumors
Experimental: as §2, §1

HT29p30 = assay: as above; format: cell-based; conditions: cells plated 24 hr. prior to drug addition, read-out: Concentration for 50% inhibition of colony formation for human colon tumors
Experimental: as §2, §1

8226/DOX-40 = assay: In vitro tumor cell viability assay using MTT dye; format: cell-based, Human; conditions: Homo sapiens; 8226 Myeloma Cells Resistant; continuous exposure, MTT dye assay; read-out: IC50 VALUES
Experimental: as §1

8226 Human Myeloma = assay: In vitro tumor cell viability assay using MTT dye; format: cell-based; conditions: Homo sapiens; 8226 Myeloma Cells Sensitive; continuous exposure, MTT dye assay; read-out: IC50 VALUES
Experimental: as §1

[1] = 144 h, Sensitive L1210, six day MTT assay, continuous drug exposure, read-out: Concentration for 50% inhibition of tumor cells
[2] = 144 h, Resistant L1210, six day MTT assay, continuous drug exposure, read-out: Concentration for 50% inhibition of tumor cells
[3] = L1210 Leukemia Cells Sensitive, continuous exposure, MTT dye assay, read-out: IC50 VALUES
[4] = L1210 Leukemia Cells Resistant, continuous exposure, MTT dye assay, read-out: IC50 VALUES

Row | SMILES | IC50 (L-1210/Murine Leukemia; [1]) [ng/mL] | IC50 (Resistant L1210; [2]) [ng/mL] | pIC50 (205p14) | pIC50 (LOVOp32) | pIC50 (SW80p105) | pIC50 (HT29p30) | further results
1 | CNCCN1C(=O)c2cccc3cc4ccccc4c(c23)C1=O [Compound 22, 1,2-Dihydro-2-[2'-(methylamino)ethyl]-3H-dibenz(deh)isoquinoline-1,3-dione] | 3.2 (≈ 10.5 nM) | 2.7 (≈ 8.87 nM) |  |  |  |  | 
2 | CN(C)CCN1C(=O)c2cccc3cc4c([N+](=O)[O-])cccc4c(c23)C1=O [Compound 13, 2-[2'-(dimethylamino)ethyl]-1,2-dihydro-8-nitro-3H-dibenz(deh)isoquinoline-1,3-dione] | 2.7 (≈ 7.43 nM) | 3 (≈ 8.26 nM) |  |  |  |  | IC50 (8226/DOX-40): 10 ng/mL (≈ 27.5 nM); IC50 (L-1210/Murine Leukemia; [3]): 2.5 ng/mL (≈ 6.88 nM); IC50 (8226 Human Myeloma): 5 ng/mL (≈ 13.8 nM); IC50 (Resistant L1210; [4]): 2.9 ng/mL (≈ 7.98 nM)
3 | CN(C)CCN1C(=O)c2cccc3cc4cccc(N)c4c(c23)C1=O [Compound 3, 11-Amino-2-[2'-(dimethylamino)ethyl]-1,2-dihydro-3H-dibenz(deh)isoquinoline-1,3-dione] |  |  | 5.59 | 5.40 | 5.51 | 5.44 | 
4 | CN(C)CCN1C(=O)c2cccc3cc4cccc([N+](=O)[O-])c4c(c23)C1=O [Compound 2, 2-[2-(dimethylamino)ethyl]-1,2-dihydro-11-nitro-2H-dibenz(deh)isoquinoline-1,3-dione] |  |  | 5.52 | 5.52 | 5.60 | 5.76 | 
5 | O=C1c2cccc3cc4ccccc4c(c23)C(=O)N1CCN1CCCCC1 [Compound 7, 2-[2'-(N-piperidino)ethyl]-1,2-dihydro-3H-dibenz(deh)isoquinoline-1,3-dione] |  |  | 5.00 | 6.12 | 6.00 | 5.36 | 
6 | O=C1c2cccc3cc4ccccc4c(c23)C(=O)N1CCN1CCCC1 [Compound 8, 2-[2'-(N-pyrrolidino)ethyl]-1,2-dihydro-3H-dibenz(deh)isoquinoline-1,3-dione] |  |  | 4.93 | 6.00 | 6.05 | 5.59 | 
7 | CN(C)CCN1C(=O)c2cccc3cc4ccc(Cl)cc4c(c23)C1=O [Compound 16, 10-Chloro-2-[2'-(dimethylamino)ethyl]-1,2-dihydro-3H-dibenz(deh)isoquinoline-1,3-dione] | 2.5 (≈ 7.09 nM) | 2 (≈ 5.67 nM) |  |  |  |  | 
8 | CN(C)CCCN1C(=O)c2cccc3cc4ccccc4c(c23)C1=O [Compound 11, 2-[3'-(dimethylamino)propyl]-1,2-dihydro-3H-dibenz(deh)isoquinoline-1,3-dione] |  |  | 4.87 | 5.80 | 5.89 | 5.08 | 

More lines, main results first:

Row | IC50 (L-1210/Murine Leukemia; [1]) [ng/mL] | IC50 (Resistant L1210; [2]) [ng/mL] | pIC50 (205p14) | pIC50 (LOVOp32) | pIC50 (SW80p105) | pIC50 (HT29p30) | SMILES | further results
9 |  |  | 4.94 | 6.10 | 5.89 | 5.08 | O=C1c2cccc3cc4ccccc4c(c23)C(=O)N1CCCN(CCO)CCO [Compound 12] | 
10 | 3 (≈ 9.03 nM) | 3 (≈ 9.03 nM) |  |  |  |  | Cc1c2ccccc2c2c3c(cccc13)C(=O)N(CCN(C)C)C2=O [Compound 19, 2-[2'-(Dimethylamino)ethyl]-1,2-dihydro-7-methyl-3H-dibenz(deh)isoquinoline-1,3-dione] | 
11 |  |  |  |  | 6.12 | 6.60 | CN(C)c1ccc(N2C(=O)c3cccc4cc5ccccc5c(c34)C2=O)cc1 [Compound 10, 2-(4'-dimethylaminophenyl)-1,2-dihydro-3H-dibenz(deh)isoquinoline-1,3-dione] | 
12 | 28 (≈ 79.4 nM) | 30 (≈ 85 nM) |  |  |  |  | CN(C)CCN1C(=O)c2cccc3c(Cl)c4ccccc4c(c23)C1=O [Compound 17, 7-Chloro-2-[2'-(dimethylamino)ethyl]-1,2-dihydro-3H-dibenz(deh)-isoquinoline-1,3-dione] | 
13 | 3.2 (≈ 9.57 nM) | 3.2 (≈ 9.57 nM) |  |  |  |  | CN(C)CCN1C(=O)c2cccc3c(O)c4ccccc4c(c23)C1=O [Compound 21, 2-[2'-(dimethylamino)ethyl]-1,2-dihydro-7-hydroxy-3H-dibenz(deh)isoquinoline-1,3-dione] | 
14 | 5000 (≈ 15000 nM) |  |  |  |  |  | CN(C)CCN1C(=O)c2cccc3cc4c(N)cccc4c(c23)C1=O [Compound 14, 8-Amino-2-[2'-(dimethylamino)ethyl]-1,2-dihydro-3H-dibenz-(deh)isoquinoline-1,3-dione] | IC50 (8226/DOX-40): > 100 ng/mL; IC50 (L-1210/Murine Leukemia; [3]): 5000 ng/mL (≈ 15000 nM); IC50 (8226 Human Myeloma): > 100 ng/mL; IC50 (Resistant L1210; [4]): > 5000 ng/mL
15 | 3.1 (≈ 8.95 nM) | 3.1 (≈ 8.95 nM) |  |  |  |  | CCc1ccc2c3c(c4ccccc4cc13)C(=O)N(CCN(C)C)C2=O [Compound 15, 2-[2'-(dimethylamino)ethyl]1,2-dihydro-6-ethyl-3H-dibenz(deh)isoquinoline-1,3-dione] | 
16 |  |  | 4.76 | 5.25 | 5.52 | 4.95 | CCN1CCCC(N2C(=O)c3cccc4cc5ccccc5c(c34)C2=O)C1 (stereo not shown) [Compound 9, 2-(1'-ethyl-3'piperidinyl)-1,2-dihydro-3H-dibenz(deh)isoquinoline-1,3-dione] | 
17 | 3.2 (≈ 9.18 nM) | 2.8 (≈ 8.04 nM) |  |  |  |  | COc1c2ccccc2c2c3c(cccc13)C(=O)N(CCN(C)C)C2=O [Compound 20, 2-[2'-(Dimethylamino)ethyl]-1,2-dihydro-7-methoxy-3H-dibenz-(deh)isoquinoline-1,3-dione] | 
